Read-outs that look alike come from different tables or passages of the source. Where a SMILES comes first, the peptide text is derived from it. [ ]: non-standard residue; d: D form. The star is where a group is joined. Sta = CC(C)C[C@H](N)[C@@H](O)CC(=O)O; Isovaleryl = CC(C)CC(=O)*
Experiments:
Assay in all cases: cells
[1] = system: endothelial tube formation in co-cultures of ECFCs and ADSCs treated with VEGF; assay type: cell-based, human; conditions: Homo sapiens
[2] = system: nuclear β-catenin in C2C12 cells; assay type: cell-based; conditions: Mus musculus
INS-1E cells = assay type: cell-based, rat; conditions: Rattus norvegicus, INS-1E
NCI-H716 cells = assay type: cell-based, Human; conditions: Homo sapiens, NCI-H716
HeLa cells = assay type: cell-based
DLD-1 = assay type: cell-based; conditions: Homo sapiens
SNU-C1 = assay type: cell-based; conditions: Homo sapiens
SW480 = assay type: cell-based; conditions: Homo sapiens, read-out: Basal_Viability ATP SW480
Colo320 = assay type: cell-based; conditions: Homo sapiens, read-out: Basal_Viability ATP Colo 320
HT-29 = assay type: cell-based; conditions: Homo sapiens, HT-29, read-out: Basal_Viability ATP HT-29
RKO = assay type: cell-based; conditions: Homo sapiens, RKO, read-out: Basal_Viability ATP RKO
[3] = system: HCT116 cells treated with a GSK3β inhibitor; assay type: cell-based; conditions: Homo sapiens, HCT-116, read-out: GSK3b inh pretreated_Viability ATP HCT116
HCT116 = assay type: cell-based; conditions: Homo sapiens, HCT-116, basal, read-out: Basal_Viability ATP HCT116
[4] = Homo sapiens, HeLa, S2 Table; HeLa; 20 = no response at highest concentration; read-out: CellCycle G2/M
[5] = DLD-1, basal, DLD-1, read-out: Basal_Viability ATP DLD-1
[6] = C2C12, S2 Table, module primary assay, 20 / 20.1 codes per legend, read-out: Wnt Pathway
[7] = IC50 / EC50, endothelial tube area, ADSC/ECFC co-culture, read-out: Anti-Angiogenesis
[8] = C2C12, IC50 / EC50, C2C12 beta-catenin translocation, read-out: Wnt Pathway
[9] = IC50 / EC50, read-out: Insulin Secretion
[10] = IC50 / EC50, read-out: GLP 1 Secretion
[11] = Homo sapiens, HeLa, IC50 / EC50; HeLa; read-out: CellCycle G2/M

**Q.** Which IC50 ([1]; read-out: Anti-Angio IC50) does the source give for CN(Cc1cnc2nc(N)nc(N)c2n1)c1ccc(C(=O)N[C@@H](CCC(=O)O)C(=O)O)cc1 [methotrexate, reference compound] here?
**A.** The IC50 was over 10 µM.

**Q.** And the EC50 ([2]; C2C12, read-out: Wnt Pathway)?
**A.** Its EC50 is 0.0116 µM.

**Q.** And the EC50 ([2]; C2C12, read-out: Wnt pot. EC50)?
**A.** Its EC50 is 0.012 µM.

**Q.** What about the EC50 (INS-1E cells; read-out: Ins. sec. EC50) of the same molecule?
**A.** Its EC50 is over 10 µM.

**Q.** And the EC50 (NCI-H716 cells; read-out: GLP1 sec. EC50)?
**A.** The EC50 was over 10 µM.

**Q.** What about the EC50 (HeLa cells; [4]) of the same molecule?
**A.** Its EC50 is over 10 µM.

**Q.** And the IC50 (DLD-1; DLD-1, 72 h, Table 2, 72 h, Cell TiterGlo, non-adherent, 20 coded, read-out: DLD-1 viab. IC50)?
**A.** The IC50 was 0.7 µM.

**Q.** And the IC50 (DLD-1; [5])?
**A.** Its IC50 is 0.704 µM.

**Q.** What about the IC50 (SNU-C1; SNU-C1, 72 h, Table 2, 72 h, Cell TiterGlo, non-adherent, 20 coded, read-out: SNU-C1 viab. IC50) of the same molecule?
**A.** Its IC50 is over 20 µM.

**Q.** O=c1[nH]cc(F)c(=O)[nH]1 [Fluorouracil] was tested. Which IC50 ([1]; read-out: Anti-Angiogenesis) did it give?
**A.** The IC50 was over 10 µM.

**Q.** And the EC50 [2, 6]?
**A.** The EC50 was over 10 µM.

**Q.** What about the EC50 (INS-1E cells; read-out: Insulin Secretion) of the same molecule?
**A.** Its EC50 is over 10 µM.

**Q.** What about the EC50 (NCI-H716 cells; read-out: GLP 1 Secretion) of the same molecule?
**A.** Its EC50 is over 10 µM.

**Q.** What about the EC50 (HeLa cells; [4]) of the same molecule?
**A.** Its EC50 is over 10 µM.

**Q.** What about the IC50 (DLD-1; [5]) of the same molecule?
**A.** The IC50 was over 20 µM.

**Q.** And the IC50 (SW480; SW480, basal, SW480)?
**A.** Its IC50 is over 20 µM.

**Q.** What about the IC50 (Colo320; basal, Colo 320) of the same molecule?
**A.** The IC50 was over 20 µM.

**Q.** What about the IC50 (HT-29; basal) of the same molecule?
**A.** Its IC50 is over 20 µM.

**Q.** And the IC50 (RKO; basal)?
**A.** The IC50 was over 20 µM.

**Q.** And the IC50 (SNU-C1; SNU-C1, basal, SNU-C1, read-out: Basal_Viability ATP SNU-C1)?
**A.** Its IC50 is over 20 µM.

**Q.** Which results are given for CC(C)=CCNc1ncnc2c1ncn2[C@@H]1O[C@H](CO)[C@@H](O)[C@H]1O [Riboprine]?
**A.** IC50 [1, 7]: 2.66 µM; EC50 [2, 8]: > 10 µM; EC50 (INS-1E cells; [9]): > 10 µM; EC50 (NCI-H716 cells; [10]): > 10 µM; EC50 (HeLa cells; [11]): > 10 µM; IC50 (HT-29): > 20 µM; IC50 (SNU-C1; SNU-C1, read-out: Basal_Viability ATP SNU-C1): 9.01 µM

**Q.** How did the IC50 [1, 7] turn out when COc1cccc2c1C(=O)c1c(O)c3c(c(O)c1C2=O)C[C@@](O)(C(=O)CO)C[C@@H]3O[C@H]1C[C@H](N2CCO[C@H](OC)C2)[C@H](O)[C@H](C)O1 [nemorubicin] was run?
**A.** The IC50 was 0.003 µM.

**Q.** What about the EC50 ([2]; IC50 / EC50, C2C12 beta-catenin translocation, read-out: Wnt Pathway) of the same molecule?
**A.** Its EC50 is 0.0135 µM.

**Q.** And the EC50 (INS-1E cells; [9])?
**A.** The EC50 was over 10 µM.

**Q.** And the EC50 (NCI-H716 cells; [10])?
**A.** Its EC50 is over 10 µM.

**Q.** What about the EC50 (HeLa cells; Homo sapiens; IC50 / EC50; HeLa; read-out: CellCycle G2/M) of the same molecule?
**A.** The EC50 was over 10 µM.

**Q.** What about the IC50 (DLD-1; DLD-1, read-out: Basal_Viability ATP DLD-1) of the same molecule?
**A.** Its IC50 is 0.001 µM.

**Q.** And the IC50 (SW480; SW480)?
**A.** The IC50 was 0.001 µM.

**Q.** And the IC50 ([3]; GSK3b inhibitor pretreated)?
**A.** The IC50 was 0.001 µM.

**Q.** And the IC50 (Colo320; COLO 320)?
**A.** Its IC50 is 0.001 µM.

**Q.** What about the IC50 (RKO) of the same molecule?
**A.** The IC50 was 0.001 µM.

**Q.** With CO[C@@H]1[C@@H](OC)[C@H](C)[C@@](O)(CC(=O)O)O[C@H]1[C@H](C)[C@H]1O[C@@]2(CC[C@@](C)([C@H]3CC[C@@](C)([C@@H]4O[C@@H]([C@H]5O[C@](C)(O)[C@H](C)C[C@@H]5C)C[C@@H]4O[C@@H]4C[C@H](OC)[C@@H](OC)[C@H](C)O4)O3)O2)C[C@H](O)[C@H]1C [Maduramicin ammonium] as the molecule, how does the IC50 [1, 7] read?
**A.** The IC50 was 0.252 µM.

**Q.** And the EC50 [2, 8]?
**A.** Its EC50 is over 10 µM.

**Q.** And the EC50 (INS-1E cells; [9])?
**A.** Its EC50 is over 10 µM.

**Q.** What about the EC50 (NCI-H716 cells; [10]) of the same molecule?
**A.** Its EC50 is over 10 µM.

**Q.** What about the EC50 (HeLa cells; [11]) of the same molecule?
**A.** The EC50 was over 10 µM.

**Q.** What about the IC50 (DLD-1; DLD-1, basal, read-out: Basal_Viability ATP DLD-1) of the same molecule?
**A.** Its IC50 is 1.08 µM.

**Q.** What about the IC50 (SW480; SW480, basal) of the same molecule?
**A.** Its IC50 is 1.45 µM.

**Q.** What about the IC50 (HCT116) of the same molecule?
**A.** The IC50 was 8.6 µM.

**Q.** What about the IC50 ([3]; GSK3b inhibitor pretreated) of the same molecule?
**A.** Its IC50 is 1.16 µM.

**Q.** How did the IC50 ([1]; read-out: Anti-Angiogenesis) turn out when CC(C)CC(=O)N[C@H](C(=O)N[C@H](C(=O)N[C@@H](CC(C)C)[C@@H](O)CC(=O)N[C@@H](C)C(=O)N[C@@H](CC(C)C)[C@@H](O)CC(=O)O)C(C)C)C(C)C [Pepstatin] (Isovaleryl-VV[Sta]A[Sta]-OH) was run?
**A.** The IC50 was 1.24 µM.

**Q.** And the EC50 [2, 6]?
**A.** The EC50 was over 10 µM.

**Q.** What about the EC50 (INS-1E cells; read-out: Insulin Secretion) of the same molecule?
**A.** Its EC50 is over 10 µM.

**Q.** What about the EC50 (NCI-H716 cells; read-out: GLP 1 Secretion) of the same molecule?
**A.** Its EC50 is over 10 µM.

**Q.** What about the EC50 (HeLa cells; [4]) of the same molecule?
**A.** The EC50 was over 10 µM.

**Q.** What about the IC50 (DLD-1; [5]) of the same molecule?
**A.** Its IC50 is over 20 µM.

**Q.** And the IC50 (SW480; SW480, basal, SW480)?
**A.** Its IC50 is over 20 µM.

**Q.** And the IC50 (HCT116; HCT116)?
**A.** Its IC50 is over 20 µM.

**Q.** What about the IC50 ([3]; HCT116 pretreated with GSK3b inhibitor) of the same molecule?
**A.** The IC50 was 17.7 µM.

From article PMC4503722, “Novel Phenotypic Outcomes Identified for a Public Collection of Approved Drugs from a Publicly Accessible Panel of Assays” (PLoS ONE, 2015)
